Measured values published in publication PMC8626583, “Collagen’s primary structure determines collagen:HSP47 complex stoichiometry” (The Journal of Biological Chemistry, 2021).
“And” between values parts separate entries of the source, which are not always exact repeats. Identical values can stand only once. Like-named read-outs stand apart in the source and are kept apart here.

Columns and labels:
HSP47 [1] = target: T1, HSP47 (Canis lupus familiaris, UniProt C7C419); conditions: CMP coated 500 ng/well, HSP47 1:4 dilution series from 8 or 10 μM, anti-His-HRP/TMB read-out, four-parameter logistic fit, triplicates
T1 sequence (C7C419 entry or part of it): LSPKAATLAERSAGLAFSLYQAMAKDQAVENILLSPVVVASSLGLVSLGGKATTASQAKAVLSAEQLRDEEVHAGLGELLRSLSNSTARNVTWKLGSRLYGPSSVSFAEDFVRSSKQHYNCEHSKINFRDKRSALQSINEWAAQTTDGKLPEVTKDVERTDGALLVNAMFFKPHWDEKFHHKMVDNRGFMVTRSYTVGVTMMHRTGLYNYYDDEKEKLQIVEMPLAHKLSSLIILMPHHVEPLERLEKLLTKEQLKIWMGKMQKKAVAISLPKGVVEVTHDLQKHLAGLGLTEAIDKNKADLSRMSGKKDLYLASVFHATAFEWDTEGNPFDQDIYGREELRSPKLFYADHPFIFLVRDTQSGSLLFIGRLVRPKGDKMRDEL
Method: Purified collagen model peptides were coated onto a Nunc MaxiSorp (Thermo Fisher Scientific), 500 ng/well. Plates were washed after 1 h at RT with TBS-T 0.05% and free binding sites were blocked with 1% (w/v) BSA in TBS. […] Assays were either stopped with 10% H2SO4 and absorption measured at 450 nm or continuously monitored at 370 nm every 20 min for 1 h. In latter cases, timepoints showing the highest signal-to-noise ratio were used for analysis. […] Results were analyzed using Gen5 (BioTek) and Origin 2018.
The values shown for ELISA-style binding assays represent the average of triplicates. Data from affinity assays were analyzed using a four-parameter logistic fit function ([44]) in Origin 2018.

HSP47 [2] = target: T1, HSP47; conditions: gold-labeled HSP47 200 nM, foldon-CMP 100 nM (2:1); 30 fields of 1 μm2 counted
Method: Briefly, mixed protein solutions were adsorbed to 400 mesh carbon-coated copper grids and stained with 0.75% (w/v) uranyl formate. Specimens were examined in a Philips/FEICM 100 TWIN transmission electron microscope operated at 60 kV accelerating voltage. Images were recorded with a side-mounted Olympus Veleta camera with a resolution of 2048 × 2048 pixels (2k × 2K) and the ITEM acquisitions software.

HSP47 [3] = target: T1, HSP47; conditions: normalized to water at 20 °C
Method: All samples were incubated for 30 min at RT and afterward centrifuged at 42.000 rpm in a ProteomeLab XL-A analytical ultracentrifuge (Beckman Coulter) equipped with a fluorescence detection system (AU-FDS; Aviv Biomedical Inc). In this setup 42.000 rpm translates to 117.552g at the top (r = 59.5 mm) and 142.248g at the bottom (r = 72.0 mm) of the sample cell. Samples were spun in standard 12 mm double-sector epon-filled centerpieces, covered with quartz windows. All measurements were performed in triplicates and key findings repeated three times.
The resulting sedimentation velocity profiles were analyzed using DCDT+ version 2.4.3 software by John Philo ([40]). The buffer density (ρ) and buffer viscosity (η) of the buffer used for data analysis were calculated with [sequence]

[4] = read-out: KD determined by curve fittings, Fig. 1D
[5] = higher molar ratios of HSP47 (up to 20 μM) to 1 μM ATTO488-labeled CMP
[6] = 1–5 μM HSP47 to 1 μM ATTO488-labeled CMP, 20 mM HEPES, 150 mM NaCl pH 7.5

Substance	Kd (HSP47 [1]; [4])	Stoichiometry, 0 Au / foldon (no HSP47 bound) (HSP47 [2])	Stoichiometry, 1 Au / foldon (one HSP47 bound) (HSP47 [2])	sedimentation coefficient of the HSP47:CMP complex (HSP47 [3]; [5])	sedimentation coefficient of the HSP47:CMP complex (HSP47 [3]; [6])	Kd (HSP47 [1]; Fig. 1C)	Stoichiometry, 2 Au / foldon (two HSP47 bound) (HSP47 [2])
GARGLP	24.1 ± 5.4 nM	52%	46%	even higher sedimentation rates	–	–	–
GPRGFP	12 ± 1.4 nM	54%	45%	stagnated	~4 S	–	–
GPRGPP	21.7 nM and ~21 nM	–	29%	~5 S	~4 S	36 ± 3 nM	18%
